Legend:
[1] = test system: arterial ring angiogenesis in rats; experiment: Inhibitory actions on arterial ring angiogenesis in rats; format: cell-based; conditions: Rattus norvegicus, area covered by micrangiums vs control well, read-out: Inhibitory rate (%); for inhibition at 0.2 µg/mL: 0.2 μg/ml; for inhibition at 1 µg/mL: 1 μg/ml; for inhibition at 5 µg/mL: 5 μg/ml
Protocol: This experiment was conducted by referring to the method described by R. F. Nicosia et al (Nicosia, R. F., et al. Am J Pathol., 1997, 151, 1379-1386). Rats were executed by cervical dislocation. The thoracic aorta was carefully separated, and placed in a container with physiological saline. The excess tissues were carefully cut off. The blood vessels were cut with a pair of ophthalmic scissors to form 1 mm thick vascular ring slices. To a pre-cooled 96-well cell culture plate, one separated vascular ring was placed in the center of each well. 70 μl of pre-molten Matrigel was carefully added to cover the vascular ring, which was incubated at 37° C. for 1 h so as to solidify it. […] The sample was placed in incubator for conventional culture, and each compound was tested at least in two repeated wells, and each test was repeated twice. […] The fresh culture medium was replaced every 3 days, and the drug was changed at the same time. The survival status of vascular rings was observed under microscope, and pictures were taken at the same time. Image Pro Plus software was used to calculate the area covered by micrangiums. The average inhibition rate was calculated by using the formula: inhibition rate (%)=(area of control well−area of drug well)/area of control well×100%.

[2] = Cytotoxicity test (SRB), Hela; format: cell-based; conditions: human, Hela cervical cancer cells
Protocol: Cytotoxicity of the compounds of the present invention was tested with human non-small cell lung cancer cells A549, human cervical cancer Hela cells, human skin cancer cells A431. The test was performed by referring to the method described by Rusnak et al (Rusnak D. W., et al., Cell Prolif., 2007, 40, 580-94). […] Trypsin/ethylenediamine tetraacetic acid (EDTA) were used to harvest cells in cell culture bottle. The cells were added to a 96-well cell culture plate, 4000/well (0.1 ml medium), adhering wall overnight, 0.1 ml of the diluted solution of the compounds to be tested was added, the final concentration of DMSO was 0.25%. The cell culture plate was incubated at 37° C., 5% CO2 conditions for 72 h. […] The absorption at a wavelength of 540 nm was measured. The IC50 (μM) of the compound was calculated using Logit method.

[3] = test system: human colon cancer HT 29 transplanted tumor; experiment: Nude mice transplanted tumor test; format: in vivo, female Balb/cA nude mice; set-up: key to d21 Vave ± SD (average tumor volume): tumor volume TV = ½×a×b² (a, b = major, minor diameter), in mm³; conditions: for Dead animal number / inhibition in vivo at 80 mg/kg / d21 Wave ± SD (average bodyweight of nude mice) / d21 Vave ± SD (average tumor volume) / d21 RTV ± SD (relative tumor volume): 80 mg/kg intragastrically each day for 20 days; for Dead animal number: dead/total animals; for Activity of inhibiting HT-29 transplanted tumor in vivo (in words): 80 mg/kg, compared with positive control Sunitinib; for inhibition in vivo at 80 mg/kg: Mus musculus, HT-29, po, 504 h, (1−T/C)×100%, read-out: Tumor inhibition rate d21 (%); for inhibition in vivo at 80 mg/kg / d21 Wave ± SD (average bodyweight of nude mice) / d21 Vave ± SD (average tumor volume) / d21 RTV ± SD (relative tumor volume): d21; for d0 Wave ± SD (average bodyweight of nude mice): d0, at grouping before administration (baseline); for d21 Vave ± SD (average tumor volume): HT 29 in nude mice; for d21 RTV ± SD (relative tumor volume): RTV=Vt/V0
Protocol: The nude mice transplanted tumor test used female Balb/cA nude mice, and tumor strains were human colon cancer HT 29 strains.
Under sterile condition, eugonic tumor tissues stage were cut into pieces of about 1.5 mm^3, and inoculated at right axillary fossa of the nude mice. The transplanted tumor diameter was measured by vernier caliper, and the animals were randomly grouped after the tumors grew to about 120 mm^3. The positive control group and the compounds group in a dosage of 80 mg/kg were administered intragastrically each day for consecutive 20 days. The negative control group was given equivalent amount of injection water containing 0.1% Tween 80. Tumor diameters and the bodyweight of mice were measured 2-3 times every week. The evaluation indexes observed in the test include relative tumor proliferation rate, bodyweight and general states. The formulation for calculating tumor volume (TV) is: TV=½×a×b^2, wherein a, b represent major diameter and minor diameter of tumor; Relative tumor volume (RTV) was calculated according the results of measurement by the following formula: RTV=Vt/V0, wherein V0 is tumor volume measured when dividing groups for administration, and Vt is tumor volume measured after each administration.

[4] = Cytotoxicity test (SRB), A549; format: cell-based; conditions: human, A549 non-small cell lung cancer cells
Protocol: (§1) Cytotoxicity of the compounds of the present invention was tested with human non-small cell lung cancer cells A549, human cervical cancer Hela cells, human skin cancer cells A431. The test was performed by referring to the method described by Rusnak et al (Rusnak D. W., et al., Cell Prolif., 2007, 40, 580-94).
(§2) In Dulbecco's Modified Eagle Medium (DMEM) comprising 10% fetal bovine serum, 2 mM glutamine and non-essential amino acids, cells were cultured at 37° C. in 5% CO2 cell incubator. Trypsin/ethylenediamine tetraacetic acid (EDTA) were used to harvest cells in cell culture bottle. The cells were added to a 96-well cell culture plate, 4000/well (0.1 ml medium), adhering wall overnight, 0.1 ml of the diluted solution of the compounds to be tested was added, the final concentration of DMSO was 0.25%. The cell culture plate was incubated at 37° C., 5% CO2 conditions for 72 h. The change of cellular morphology was observed under microscope, and then 50 μl of 50% (mass/volume) trichloroacetic acid (TCA) was added to each well to fix cells. The final concentration of TCA was 10%. It stood for 5 min, than was placed in 4° C. refrigerator for 1 h, the wells of the culture plate were washed with deionized water for 5 times to remove TCA, drained, dried in air until no wet trace was observed. 100 μl of 0.4% (mass/volume) SRB was added to each well, stood at room temperature for 10 min. The liquid in each well was discarded, and then the wells were washed with 1% acetic acid for 5 times, dried in air, extracted with 150 μl of 10 mM Tris base (trihydroxymethylaminomethane, pH 10.5). The absorption at a wavelength of 540 nm was measured. The IC50 (μM) of the compound was calculated using Logit method.

[5] = Cytotoxicity test (SRB), A431; format: cell-based; conditions: human, A431 skin cancer cells
Protocol: as §1, §2

Structure (SMILES) | inhibition at 0.2 µg/mL [1] | inhibition at 1 µg/mL [1] | inhibition at 5 µg/mL [1] | IC50 at 72 h [2] | Dead animal number [3] | Activity of inhibiting HT-29 transplanted tumor in vivo (in words) [3] | inhibition in vivo at 80 mg/kg [3] | d0 Wave ± SD (average bodyweight of nude mice) [3] | d21 Wave ± SD (average bodyweight of nude mice) [3] | d21 Vave ± SD (average tumor volume) ([3]; in mm³ (unit assumed)) | d21 RTV ± SD (relative tumor volume) [3] | IC50 at 72 h [4] | IC50 at 72 h [5] | d21 Vave ± SD (average tumor volume) [3]
CCN(CC)CCC(=O)Nc1c(C)[nH]c(/C=C2\C(=O)Nc3ccc(F)cc32)c1C [Compound 1, N-{5-[5-fluoro-2-oxo-1,2-dihydro-indol-(3Z)-ylidenemethyl]-2,4-dimethyl-1H-pyrrol-3-yl}-3-(N,N-diethylamino)propionamide] | 99% | 100% | 100% | > 30 µM | 0/6 | inhibitory activity comparable to the positive control Sunitinib | 86.9% | 18.6 ± 1.20 | 18.8 ± 2.97 | 102.8 ± 26.2 | 0.94 ± 0.12 | > 30 µM | > 30 µM | –
CCN(CC)CCC(=O)Nc1c(C)[nH]c(/C=C2\C(=O)Nc3ccc(Cl)cc32)c1C [Compound 2, N-{5-[5-chloro-2-oxo-1,2-dihydro-indol-(3Z)-ylidenemethyl]-2,4-dimethyl-1H-pyrrol-3-yl}-3-(N,N-diethylamino)propionamide] | 94% | 100% | 100% | > 30 µM | 0/6 | – | 63.8% | 18.8 ± 0.35 | 19.9 ± 0.68 | – | 2.60 ± 0.52 | > 30 µM | > 30 µM | 300.3 ± 36.8
Cc1[nH]c(/C=C2\C(=O)Nc3ccc(F)cc32)c(C)c1NC(=O)/C=C/CN(C)C [Compound 4, N-{5-[5-fluoro-2-oxo-1,2-dihydro-indol-(3Z)-ylidenemethyl]-2,4-dimethyl-1H-pyrrol-3-yl}-4-(N,N-dimethylamino)-(2E)-crotonamide] | 98% | 100% | 100% | > 30 µM | 0/6 | inhibitory activity comparable to the positive control Sunitinib | 91% | 19.6 ± 0.22 | 19.6 ± 0.85 | 80.0 ± 33.2 | 0.65 ± 0.28 | > 30 µM | > 30 µM | –
Cc1[nH]c(/C=C2\C(=O)Nc3ccc(F)cc32)c(C)c1NC(=O)CCCN(C)C [Compound 5, N-{5-[5-fluoro-2-oxo-1,2-dihydro-indol-(3Z)-ylidenemethyl]-2,4-dimethyl-1H-pyrrol-3-yl}-4-(N,N-dimethylamino)butyramide] | 93% | 100% | 100% | > 30 µM | 0/6 | – | 86.6% | 18.9 ± 1.00 | 18.6 ± 0.87 | 111.8 ± 28.2 | 0.96 ± 0.42 | > 30 µM | > 30 µM | –
Cc1[nH]c(/C=C2\C(=O)Nc3ccc(F)cc32)c(C)c1NC(=O)CCN1CCCC1 [Compound 14, N-{5-[5-fluoro-2-oxo-1,2-dihydro-indol-(3Z)-ylidenemethyl]-2,4-dimethyl-1H-pyrrol-3-yl}-3-(tetrahydropyrrol-1-yl)propionamide] | 88% | 100% | 100% | > 30 µM | – | – | – | – | – | – | – | > 30 µM | > 30 µM | –
Cc1[nH]c(/C=C2\C(=O)Nc3ccc(F)cc32)c(C)c1NC(=O)CN1CCN(C)CC1 [Compound 15, N-{5-[5-fluoro-2-oxo-1,2-dihydro-indol-(3Z)-ylidenemethyl]-2,4-dimethyl-1H-pyrrol-3-yl}-2-(4-methylpiperazin-1-yl)acetamide] | 89% | 100% | 100% | > 30 µM | – | – | – | – | – | – | – | > 30 µM | > 30 µM | –
CCN(CC)CC(=O)Nc1c(C)[nH]c(/C=C2\C(=O)Nc3cc(OC)ccc32)c1C [Compound 23, N-{5-[6-methoxy-2-oxo-1,2-dihydro-indol-(3Z)-ylidenemethyl]-2,4-dimethyl-1H-pyrrol-3-yl}-2-(N,N-diethylamino)acetamide] | 90% | 100% | 100% | > 30 µM | – | – | – | – | – | – | – | > 30 µM | > 30 µM | –
CCN(CC)CC(=O)Nc1c(C)[nH]c(/C=C2\C(=O)Nc3ccc(NS(C)(=O)=O)cc32)c1C [Compound 25, N-{5-[5-methylsulfonylamino-2-oxo-1,2-dihydro-indol-(3Z)-ylidenemethyl]-2,4-dimethyl-1H-pyrrol-3-yl}-2-(N,N-diethylamino)acetamide] | 89% | 100% | 100% | > 30 µM | – | – | – | – | – | – | – | > 30 µM | 6.57 µM | –
CCN(CC)CC(=O)Nc1c(C)[nH]c(/C=C2\C(=O)Nc3cc(C)ccc32)c1C [Compound 27, N-{5-[6-methyl-2-oxo-1,2-dihydro-indol-(3Z)-ylidenemethyl]-2,4-dimethyl-1H-pyrrol-3-yl}-2-(N,N-diethylamino)acetamide] | 78% | 95% | 100% | > 30 µM | – | – | – | – | – | – | – | > 30 µM | > 30 µM | –

From patent publication US8637681B2, “Pyrrolyl substituted dihydroindol-2-one derivatives, preparation methods and uses thereof” (Qilu Pharmaceutical Co., Ltd., priority 2010, dated 2014)
